Results from patent publication US11845740B2, “Glutaminyl cyclase inhibitors and the use thereof in treatment of various diseases” (OBSCHESTVO S OGRANICHENNOI OTVETSTVENNOSTIYU …, priority 2017, dated 2023).

Molecular target: recombinant intracellular human glutaminyl cyclase (Homo sapiens (Human), UniProt Q9NXS2)
Experiment: Enzymatic activity of human glutaminyl cyclase in vitro (fluorescent substrate Gln-bNA)
Assay type: biochemical
Conditions: 25° C., 50 μM Gln-bNA, pH 8.0
Description: The reaction mixture having a volume of 100-μl has contained 50 μM of fluorogenic substrate; ˜0.2 units of human pyroglutaminyl aminopeptidase (1 unit is defined as an amount hydrolyzing 1 micromole of pGlu-bNA per minute), and an aliquot of the recombinant intracellular human glutaminyl cyclase (gQC) in 50 mM trisaminomethane-HCl and 5% glycerol, a pH is 8.0.
The further course of the reaction was monitored spectrophotometrically (the wavelength of the excitation and emission were 320 and 410 nm). The enzyme activity was determined by an amount of the released 2-naphthyl amide (bNA), calculated from the calibration curve. The IC50 values were calculated using nonlinear regression of “inhibitor concentration”-“enzymatic activity” curve.

recombinant intracellular human glutaminyl cyclase, sequence (Q9NXS2 whole entry): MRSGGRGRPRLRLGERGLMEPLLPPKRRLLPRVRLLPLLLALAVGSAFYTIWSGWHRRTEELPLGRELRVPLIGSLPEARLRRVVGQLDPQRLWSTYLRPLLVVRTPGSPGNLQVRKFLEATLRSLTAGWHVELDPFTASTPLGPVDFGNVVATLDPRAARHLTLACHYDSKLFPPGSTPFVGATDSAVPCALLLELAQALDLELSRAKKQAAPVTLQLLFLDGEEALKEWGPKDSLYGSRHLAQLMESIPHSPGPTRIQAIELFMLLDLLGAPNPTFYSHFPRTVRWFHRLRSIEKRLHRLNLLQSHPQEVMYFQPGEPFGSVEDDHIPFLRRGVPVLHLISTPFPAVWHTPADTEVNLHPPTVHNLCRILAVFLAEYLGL

How did the IC50 turn out when `O=C(NCCc1cnc[nH]1)NCCc1cnc[nH]1` [Compound III, N,N′-bis[2-(1H-imidazol-4-yl)ethyl]carbamide] was run?
Its IC50 is 3500 nM.

And the Ki?
The Ki was 2000 nM.
